Values of other authors as cited in patent US20200306335A1, “A Dietary Composition Comprising Plant-Based Sources of Fatty Acids” (priority 2017, published 2020).

Columns and labels:
5 alpha-R Type 1 = biological target: T1, 5 alpha-R Type 1 (Homo sapiens, UniProt P18405); details: result in words, from a study cited in the background
T1 sequence (P18405 1-259): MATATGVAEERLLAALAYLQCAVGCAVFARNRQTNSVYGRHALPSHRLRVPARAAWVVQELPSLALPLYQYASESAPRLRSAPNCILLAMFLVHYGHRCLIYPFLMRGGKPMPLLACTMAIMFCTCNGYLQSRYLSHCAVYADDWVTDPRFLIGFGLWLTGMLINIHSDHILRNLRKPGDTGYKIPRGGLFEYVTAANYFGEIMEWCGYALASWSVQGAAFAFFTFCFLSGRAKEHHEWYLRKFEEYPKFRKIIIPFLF

5 alpha-R Type 2 = biological target: T2, 5 alpha-R Type 2 (Homo sapiens, UniProt P31213); details: result in words, from a study cited in the background
T2 sequence (P31213 1-254): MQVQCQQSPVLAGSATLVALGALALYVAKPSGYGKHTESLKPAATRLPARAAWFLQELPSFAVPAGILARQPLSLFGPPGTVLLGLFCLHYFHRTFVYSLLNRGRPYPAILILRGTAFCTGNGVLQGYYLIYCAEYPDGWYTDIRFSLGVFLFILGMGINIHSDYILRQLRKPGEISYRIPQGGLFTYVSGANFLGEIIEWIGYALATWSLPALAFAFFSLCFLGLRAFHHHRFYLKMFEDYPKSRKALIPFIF

Compound | inhibition of 5 alpha-R Type 1 (5 alpha-R Type 1) | inhibition of 5 alpha-R Type 2 (5 alpha-R Type 2)
CCCCC/C=C\C/C=C\CCCCCCCC(=O)O [linoleic acid] | active inhibitors | little to no inhibitory activity
CCCCCCCC/C=C\CCCCCCCC(=O)O [Oleic, oleic acid] | active inhibitors | little to no inhibitory activity
CCCCCCCCCCCC(=O)O [Lauric acid, lauric acid] | active inhibitor | active inhibitor
CCCCCCCCCCCCCC(=O)O [Myristic acid, myristic acid] | – | strongly inhibit
